Assay results from US20230114264A1, “ACTIVATION OF LYTIC GENES IN CANCER CELLS” (priority 2020, published 2023).

System: EBV lytic genes
Test: EBV lytic gene induction in DOX-induced C666-1 dCas9-Tet-on-PUFa-p65HSF1 gRNA cells
Type: cell-based, Epstein-Barr virus (EBV)
Excerpt: SNU-719 and C666-1 cancer cells stably expressing HA-dCas9-EGFP and BZLF1 gRNA (A5) were modified to inducibly express 3×FLAG-PUFa-p65HSF1 using a Tetracycline response element (Tet-On). […] This reactivation of EBV slows the growth rate of cells by greater than 4 fold compared with cells treated with ganciclovir (GCV) alone, a current standard treatment for EBV infection (FIGS. 3B, 6A, 8H-8I). Further, treatment with BZLF1 gRNA (A5) decreases C666-1 cell viability by 50-70% relative to control (FIG. 6B).
Producing Tet-on PUFa-p65HSF1 cell line. SNU-719 or C666-1 cells stably expressing HA-dCas9-EGFP were seeded into a 60 mm culture dish at 70% density. The cells were transfected with 1 μg hyPBase (transposase) and 2 μg dox-inducible PUFa-p65HSF1 in a piggyBac vector plasmid through Lipofectamine 2000 reagent (Invitrogen). At 6 hours post-transfection, cell culture medium was exchanged. At 48 hours post-transfection, cells were selected with hygromycin antibiotics.
Producing Tet-on PUFa-p65HSF1 and BZLF1 gRNA (3) cell line. The day prior to transfection, HEK-293FT cells were seeded into a 10 cm culture dish at 70% density. […]. At 6 hours post-transfection, medium was exchanged for fresh. At 48 hours post-transfection, 5 mL of medium containing the lentivirus was collected and centrifuged for 10 minutes at 2,000 rpm to remove cellular debris. The supernatant was filtered through a 0.45-micron filter (Millipore), and the lentivirus was collected. SNU-719 dCas9-Tet-on-PUFa-p65HSF1 or C666-1 dCas9-Tet-on-PUFa-p65HSF1 cells were seeded into a 10 cm culture dish at 60% density per dish, transduced with 7 mL of the BZLF1 gRNA (A5) lentivirus in culture medium supplemented with 8 μg/mL polybrene for 48 hours, and subsequently selected with Puromycin antibiotics on the third day post-transduction.
RNA in-situ hybridization ISH (RNAscope®). Doxycycline (DOX) treated or untreated SNU-719 HA-dCas9-EGFP-Tet-on-PUFa-p65HSF1-BZLF1 gRNA (A5) cells or C666-1-HA-dCas9-Tet-on-PUFa-p65HSF1-BZLF1 gRNA (A5) cells were incubated for 48 hours. […]

With “BZLF1 gRNA (A5): BZLF1 gRNA spacer sequence SEQ ID NO: 10, GAAACTATGCATGAGCCAC (chemistry not given here)” the “expression of other EBV lytic genes including BRLF1 (Rta), BGLF4 (PK), BFRF3 (VCAp18), BMRF1, BdRF1 and BLLF1” value (1 μg/mL DOX) was “induces the expression of other EBV lytic genes”, the “BZLF1 (Zta) reactivation” value (1 μg/mL Doxycycline (DOX), Example 10) was “reactivated BZLF1 (Zta)” and the “induction of the BZLF1, BGLF4, BMRF1, and BFRF3 (VCAp18) EBV lytic genes” value (3×FLAG-PUFa-p65HSF1 induced with 1 μg/mL Doxycycline) was “reactivated EBV”.
